Values joined by “and” are separate entries in the source; they are usually repeats but may differ in a detail not shown here. Equal values may be shown once.
Tested on: 926638-142-R-J1-PDC complex spheroid viability
Assay: Anticancer human tumor 926638-142-R-J1-PDC patient-derived endometrial carcinoma cell line growth inhibition [POLQ]
Conditions: for viability, T/C: stronger effect = lower value
Experimental: Multicellular complex tumor spheroid response to Polymerase (POL) inhibitors (novobiocin, ART-558, RP6685) in combination with a variety of drugs and investigational agents in selected tumor cell lines
The POL inhibitors (novobiocin, ART-558, and RP6685) were evaluated both individually and in combination with standard of care and investigational anticancer small molecules within a complex spheroid model of solid tumors. . Complex spheroids include a stromal component modeled by human endothelial cells (HUVEC) and fibroblasts modeled by human mesenchymal stem cells (MSCs). The concentration ranges selected for each drug and investigational agent were based upon clinically achievable concentrations if the clinical Cmax of the agent was known.
Compounds. The drugs and investigational agents: novobiocin (NSC847541), ART-558 (NSC835418), RP-6685 (NSC848927), peposertib (NSC802822), ceralasertib (NSC780249), elimusertib (NSC800525), camonsertib (NSC841442), AZD-1390 (NSC803789), olaparib (NSC753686), talazoparib (NSC767125), rucaparib (NSC756644), sotorasib (NSC818433), MRTX-1133 (NSC836407), SN-38 (NSC673596), topotecan (NSC609699), epotoside (NSC141540), doxorubicin (NSC123127), gemcitabine (NSC613327), 5-fluorouracil (NSC19893), paclitaxel (NSC125973), vemurafenib (NSC761431), MSA-2 (NSC828583), SN-011 (NSC837082), adavosertib (NSC754352), prexasertib (NSC758257), carboplatin (NSC241240) and oxaliplatin (NSC266046), were obtained from the National Cancer Institute (NCI) Developmental Therapeutics Program Chemical Repository (21). The FDA-approved anticancer drug set is available from the Developmental Therapeutics Program at https://dtp.cancer.gov/organization/dscb/obtaining/. […] The stock solutions were prepared in dimethyl sulfoxide (DMSO, Sigma-Aldrich, St. Louis, MO, cat. D2650), except for the platinum compounds which were prepared in saline (Quality Biological, Gaithersburg, MD, cat. 114-055-101), at 800-fold the tested concentration and stored at -70 degrees C prior to their use. All drugs and investigational agents were tested over a range starting from a high concentration at or near the clinical Cmax and decreasing in half-log increments. If the clinical Cmax for an agent had not been determined, the highest concentration tested was 10 microM, except for SN-38, which was tested at a high concentration of 1 microM.
Cell Culture. All cells were maintained in an incubator at 37 degrees C and 5% CO2 with 95% humidity. The PDC lines were cultured according to standard operating procedures established by the NCI PDMR (https://pdmr.cancer.gov). Table 3 of the manuscript, lists the cell lines along with the number of the three cell types plated to form the mct-spheroids and media for tumor cell growth. After thawing, all PDC lines, except 997537-175-T-J1-PDC and 415267-285-R-J2-PDC, were cultured in Matrigel-coated flasks prepared with a working solution of 1X Ham's F-12 nutrient mix, without supplementation (Thermo Fisher Scientific, cat. 11765054), 100 U/mL penicillin-streptomycin (Thermo Fisher Scientific, cat. 15140122), and 2.5% Matrigel (Corning Inc., Corning, NY, cat. 354248) for the first three passages. The two PDC lines 997537-175-T-J1-PDC and 415267-285-R-J2-PDC were cultured on uncoated flasks. The 857933-349-R-J2-PDC line was cultured in 6C/Colon 1B media containing advanced DMEM/F-12 (Thermo Fisher Scientific, cat. 12634028), 10 mM HEPES (Thermo Fisher Scientific, cat. 15630080), 1X GlutaMAX supplement (Thermo Fisher Scientific, cat. 35050061), 0.1 mg/mL primocin (InvivoGen, San Diego, CA, cat. ant-pm-2), 10% defined fetal bovine serum, heat inactivated (HyClone Laboratories Inc., Logan, UT, cat. SH30070.03HI), 50% L-WRN conditioned media (ATCC, cat. CRL-3276), 1.25 mM N-Acetyl-L-cysteine (Sigma-Aldrich, cat. A9165), 10 mM nicotinamide (Sigma-Aldrich, cat. N0636), 1X B-27 supplement (Thermo Fisher Scientific, cat. 17504044), 1X N-2 supplement (Thermo Fisher Scientific, cat. […]

[1] = compound alone, run of 01/08/2024
[2] = compound alone, run of 01/19/2024
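Further: spheroids exposed to drugs for one week before readout.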
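Wherever viability, T/C is given: percent viability relative to DMSO vehicle control wells set as 100%.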

SMILES | viability, T/C (compound 0.0316 µM) | viability, T/C (compound 0.1 µM) | viability, T/C (compound 0.316 µM) | viability, T/C (compound 1 µM) | viability, T/C (compound 3.16 µM) | viability, T/C (compound 10 µM) | IC50 (curve of compound) | IC50 [1] [nM] | viability, T/C (compound 0.00316 µM) | viability, T/C (compound 0.01 µM) | IC50 [2] [nM] | viability, T/C (compound 0.000316 µM) | viability, T/C (compound 0.001 µM)
CNCc1ccc(-c2[nH]c3cc(F)cc4c3c2CCNC4=O)cc1 | 93.7% and 109% and 101% | 89.6% and 97.2% and 79.2% | 92.8% (2×) and 87.7% | 77.7% and 97.3% and 82.6% | 86.7% and 87.1% and 95.7% | 78% and 80.2% and 84.1% | > 10000 nM | – | – | – | – | – | –
COC1C(OC(N)=O)C(O)C(Oc2ccc3c(O)c(NC(=O)c4ccc(O)c(CC=C(C)C)c4)c(=O)oc3c2C)OC1(C)C (centres undefined) | – | – | 101% [middle of 13 runs] | – | – | 98.8% [middle of 13 runs] | – | > 10000 | – | – | – | – | –
COc1cc(C2c3cc4c(cc3C(OC3OC5COC(C)OC5C(O)C3O)C3COC(=O)C23)OCO4)cc(OC)c1O (centres undefined) | 97.6% and 99% and 86.2% | 79.6% (2×) and 77.2% | 63.6% and 68.3% and 88.5% | 67.9% and 82.5% and 80.7% | 66.8% and 64.7% and 65.7% | 65.4% and 55.2% and 55.3% | > 10000 nM | – | – | – | – | – | –
COc1cc2cc(C(=O)CCC(=O)O)sc2cc1OC | 90.1% and 110% and 93.5% | 89.8% and 92.9% and 113% | 98.2% and 105% and 100% | 101% and 109% and 93.2% | 99.7% and 107% and 75.5% | 90.7% and 92.1% and 93.5% | > 10000 nM | – | – | – | – | – | –
COc1ccc([C@@H](O)c2cc(-c3ncnc4cc(N5CCOCC5)ccc34)c(F)cc2Cl)nn1 | 89.7% and 92.5% and 103% | 89.2% and 79.2% and 80.3% | 58.8% and 72.4% and 64.8% | 29.3% and 35.7% and 36.9% | 13.2% and 18.7% and 16.1% | 8.76% and 11.7% and 5.8% | 466 nM and 635 nM and 606 nM | – | – | – | – | – | –
COc1cccc(OCCCN)c1-c1cc(Nc2cnc(C#N)cn2)n[nH]1 | 60.4% and 55.2% and 58.4% | 55.1% and 55.9% and 59.1% | 52% and 40.5% and 39.7% | 26.3% and 36.1% and 36.3% | – | – | 150 nM and 108 nM and 130 nM | – | 93.2% and 79.9% and 100% | 77.4% and 82.9% and 82.8% | – | – | –
COc1cccc2c1C(=O)c1c(O)c3c(c(O)c1C2=O)CC(O)(C(=O)CO)CC3OC1CC(N)C(O)C(C)O1 (centres undefined) | 77.2% and 83% and 80.9% | 57.6% and 62.2% and 59.7% | 17.8% and 23.1% and 18.7% | 3.79% and 5.62% and 2.27% | 0.22% and 0.29% and 0.23% | 0.25% and 0.29% and 0.23% | 124 nM and 143 nM and 131 nM | – | – | – | – | – | –
Cc1cccc(N(C)C(=O)C2C(O)CCN2c2nc(C)cc(C(F)(F)F)c2C#N)c1 (centres undefined) | – | 92.5% [middle of 13 runs] | 94.9% [middle of 13 runs] | – | – | – | – | > 10000 | – | – | > 10000 | – | –
Cn1ncnc1[C@H]1c2n[nH]c(=O)c3cc(F)cc(c23)N[C@@H]1c1ccc(F)cc1 | 86.7% and 70% and 82.3% | 67% and 72.8% and 67.5% | – | – | – | – | > 100 nM | – | 76.9% and 94.5% and 82.1% | 89.5% and 92.3% and 85.3% | – | 89.5% and 93.8% and 99.4% | 85.5% and 91.6% and 86%
Nc1ccc(C#CCN(C(=O)Cc2ncc(C(F)(F)F)cc2C(F)(F)F)c2ccc(F)cc2)nn1 | 101% [middle of 13 runs] | 101% [middle of 13 runs] | – | 97.2% [middle of 13 runs] | – | 99.8% [middle of 13 runs] | – | – | – | – | > 10000 | – | –
Nc1ccn(C2OC(CO)C(O)C2(F)F)c(=O)n1 (centres undefined) | 69.5% and 96.5% and 88.2% | 66% and 60.7% and 62% | 54.2% and 57.4% and 60.7% | 52.6% and 52.3% and 53.2% | 43.8% and 41.2% and 44% | 30.5% and 27.8% and 24.4% | 1100 nM and 577 nM and 974 nM | – | – | – | – | – | –
O=C(Nc1ccc(O)c(NS(=O)(=O)c2ccc(F)cc2)c1)c1ccc(-c2ccccc2)cc1 | 102% and 99.8% and 82.6% | 96.1% and 93.2% and 102% | 94.9% and 98.2% and 96% | 100% and 98.5% and 103% | 78.1% and 104% and 105% | 59.8% and 65.5% and 79.2% | > 10000 nM | – | – | – | – | – | –
O=C(c1cc(Cc2n[nH]c(=O)c3ccccc23)ccc1F)N1CCN(C(=O)C2CC2)CC1 | 88.8% and 70.9% and 97% | 85.3% and 91.2% and 85.1% | 86.5% and 105% and 91.6% | 88.9% and 104% and 100% | 85% and 76.3% and 79.9% | 70.9% and 87.5% and 73% | > 10000 nM | – | – | – | – | – | –
O=c1[nH]cc(F)c(=O)[nH]1 | 109% and 99.3% and 86.3% | 101% and 89.2% and 108% | 92% (2×) and 87.6% | 89% and 95.6% and 93% | 84.3% and 86% and 78.8% | 75% and 88% and 80% | > 10000 nM | – | – | – | – | – | –
